In article PMC10714400, “Antimicrobial Peptide–Peptoid Hybrids with and without Membrane Disruption” (ACS Infectious Diseases, 2023):
Converted amounts (≈) assume the structure as drawn. Where two headings read alike, the source gives them in different places. Where a SMILES comes first, the peptide text is derived from it. [ ]: non-standard residue; d: D form. Nlys = NCCCCNCC(=O)O

Columns and labels:
[1] = tested on: A. baumannii ATCC19606; conditions: for MIC A. baumannii ATCC19606 […] 7.4 / MIC A. baumannii ATCC19606 […] 8.5 / MIC A. baumannii ATCC19606 Full MH 7.4 / MIC A. baumannii ATCC19606 Full MH 8.5: Table S2; for MIC A. baumannii ATCC19606 […] 7.4 / MIC A. baumannii ATCC19606 […] 8.5: […] MH; for MIC A. baumannii ATCC19606 […] 8.5 / MIC A. baumannii ATCC19606 Full MH 8.5: pH 8.5; for MIC A. baumannii ATCC19606 […]: diluted MH ([…] MH, pH 8.5) per Table 1 footnote b, 16–20 h at 37 °C; for MIC A. baumannii ATCC19606 Full MH 7.4 / MIC A. baumannii ATCC19606 Full MH 8.5 / MIC A. baumannii ATCC19606 Full: full MH; for MIC A. baumannii ATCC19606 Full: pH 7.4, 16–20 h at 37 °C
In short: (§1)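 MTT added (20–30 min, room temperature); MIC read by eye as lowest concentration inhibiting visible growth (yellow). Polymyxin B positive control from 16 μg/mL.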

[2] = tested on: K. pneumoniae NCTC418; conditions: for MIC K. pneumoniae NCTC418 […] 7.4 / MIC K. pneumoniae NCTC418 […] 8.5: […] MH; for MIC K. pneumoniae NCTC418 […]: diluted MH ([…] MH, pH 8.5) per Table 1 footnote b, 16–20 h at 37 °C; for MIC K. pneumoniae NCTC418 Full: pH 7.4, 16–20 h at 37 °C
In short: as §1

[3] = tested on: S. aureus COL (MRSA); conditions: for MIC S. aureus COL (MRSA) […] 7.4 / MIC S. aureus COL (MRSA) […] 8.5 / MIC S. aureus COL (MRSA) Full MH 7.4 / MIC S. aureus COL (MRSA) Full MH 8.5: Table S2; for MIC S. aureus COL (MRSA) […] 7.4 / MIC S. aureus COL (MRSA) […] 8.5: […] MH; for MIC S. aureus COL (MRSA) […] 8.5 / MIC S. aureus COL (MRSA) Full MH 8.5: pH 8.5; for MIC S. aureus COL (MRSA) […]: diluted MH ([…] MH, pH 8.5) per Table 1 footnote b, 16–20 h at 37 °C; for MIC S. aureus COL (MRSA) Full MH 7.4 / MIC S. aureus COL (MRSA) Full MH 8.5 / MIC S. aureus COL (MRSA) Full: full MH; for MIC S. aureus COL (MRSA) Full: pH 7.4, 16–20 h at 37 °C
In short: as §1

[4] = tested on: ZEM9A (clinical MDR P. aeruginosa isolate); conditions: for MIC P. aeruginosa ZEM9A, […] MH at pH 8.5 / MIC P. aeruginosa ZEM9A, full MH at pH 7.4: CSV; for MIC ZEM9A: MH pH 7.4, 16–20 h at 37 °C; for MIC P. aeruginosa ZEM9A: Table S3; for MIC P. aeruginosa ZEM9A, […] MH at pH 8.5 / MIC P. aeruginosa ZEM9A: […] MH at pH 8.5
In short: as §1

[5] = tested on: E. coli W3110; experiment: NPN outer membrane permeability assay; format: cell-based, Escherichia coli; conditions: not told
Description: Figure 4 Interactions of peptide–peptoid hybrids with bacterial outer and inner membranes of E. coli. (a, b) NPN outer membrane permeability assay. E. coli W3110 bacteria were treated with increasing compound concentrations in the presence of 10 μM NPN. The fluorescence intensity (λex = 340 nm, λem = 415 nm) was measured within 5 min. Data represent mean ± SD, n = 3. (c, d) DiSC3(5) inner membrane depolarization assay. E. coli W3110 bacteria were treated with increasing compound concentrations in the presence of 2 μM DiSC3(5). The fluorescence intensity (λex = 610 nm, λem = 660 nm) was measured within 5 min after treatment, and the data represent mean ± SD, n = 3.
A single colony of P. aeruginosa PAO1 and E. coli W3110 was grown overnight while being shaken (150 rpm) in LB-broth (5 mL) at 37 °C. 100 μL of the overnight culture was regrown in 10 mL of LB broth with shaking (200 rpm) to the exponential phase (OD600 = 1, corresponding to 10^9 CFU/mL). Bacteria were washed three times with HEPES buffer (5 mM HEPES, 5 mM glucose, pH 7.4), but not diluted yet to their final concentration. 200 μL of peptide samples was added to the first well of 96-well plates (black wells, flat bottom, BRAND GmbH Wertheim, Germany), 100 μL of HEPES/glucose buffer with 10 μM N-phenyl-1-naphthylamine (NPN, purchased from Acros Organics) was added in all the wells, and the compounds were diluted serially by 1/2 (add a control with a final volume of 200 μL with 10 μM NPN in buffer only). Ca. 10 min before the measurement and the final dilution of the bacteria, the plates and the 10 μM NPN in HEPES/glucose buffer (for bacteria dilution) were incubated at 37 °C (prior to the dilution of the bacteria with buffer containing NPN 10 μM). Later, the bacteria were diluted to OD600 = 0.5 with the NPN in HEPES/glucose buffer. 100 μL of the bacterial suspension was added to each well. In this case, the final OD of bacteria was 0.25, the final concentration of the desired compound 64 μg/mL, and NPN 10 μM. The control wells are buffer containing NPN (10 μM, 200 μL) and bacterial suspension containing NPN in HEPES buffer. The plate was measured with a Tecan instrument Infinite M1000 within 5 min. The plate was enabled to shake for 5 s before measurement. The excitation wavelength used was 340 ± 5 nm, and emission wavelength was 415 ± 5 nm. The assay was repeated at least three times.

Molecule	MIC A. baumannii ATCC19606 […] 7.4 ([1]; pH 7.4) [µg/mL]	MIC A. baumannii ATCC19606 […] 8.5 [1] [µg/mL]	MIC A. baumannii ATCC19606 Full MH 7.4 ([1]; pH 7.4) [µg/mL]	MIC A. baumannii ATCC19606 Full MH 8.5 [1] [µg/mL]	MIC K. pneumoniae NCTC418 […] 7.4 ([2]; Table S2, pH 7.4) [µg/mL]	MIC K. pneumoniae NCTC418 […] 8.5 ([2]; Table S2, pH 8.5) [µg/mL]	MIC K. pneumoniae NCTC418 Full MH 7.4 ([2]; Table S2, full MH, pH 7.4) [µg/mL]	MIC S. aureus COL (MRSA) […] 7.4 ([3]; pH 7.4) [µg/mL]	MIC S. aureus COL (MRSA) […] 8.5 [3] [µg/mL]	MIC S. aureus COL (MRSA) Full MH 7.4 ([3]; pH 7.4) [µg/mL]	MIC S. aureus COL (MRSA) Full MH 8.5 [3] [µg/mL]	MIC P. aeruginosa ZEM9A, […] MH at pH 8.5 [4] [ug/mL]	MIC P. aeruginosa ZEM9A, full MH at pH 7.4 [4] [ug/mL]	MIC ZEM9A [4] [µg/mL]	MIC P. aeruginosa ZEM9A [4] [µg/mL]	MIC A. baumannii ATCC19606, […] MH at pH 7.4 ([1]; CSV) [ug/mL]	MIC A. baumannii ATCC19606, […] MH at pH 8.5 ([1]; CSV) [ug/mL]	MIC A. baumannii ATCC19606, full MH at pH 7.4 ([1]; CSV, full MH at pH 7.4) [ug/mL]	MIC A. baumannii ATCC19606, full MH at pH 8.5 ([1]; CSV) [ug/mL]	MIC A. baumannii ATCC19606 […] [1] [µg/mL]	further results
CC(C)C[C@H](NC(=O)[C@H](CC(C)C)NC(=O)[C@H](CC(C)C)NC(=O)[C@H](CCCCN)NC(=O)[C@H](CC(C)C)NC(=O)[C@H](CC(C)C)NC(=O)CN(CCCCN)C(=O)[C@H](CC(C)C)NC(=O)[C@H](CC(C)C)NC(=O)CN(CCCCN)C(=O)CNCCCCN)C(N)=O [EB6, kkLLkLLKLLL] (H-[Nlys][Nlys]LL[Nlys]LLKLLL-NH2)	2 (≈ 1.51 µM)	2 (≈ 1.51 µM)	2 (≈ 1.51 µM)	8 (≈ 6.05 µM)	4 (≈ 3.03 µM)	2 (≈ 1.51 µM)	8 (≈ 6.05 µM)	2 (≈ 1.51 µM)	2 (≈ 1.51 µM)	8 (≈ 6.05 µM)	16 (≈ 12.1 µM)	2	4	4 (≈ 3.03 µM)	2 (≈ 1.51 µM)	–	–	–	–	–	MIC A. baumannii ATCC19606, full MH at pH 7.4 ([1]; ATCC19606, 4 h, pH 7.4): 2 ug/mL; MIC K. pneumoniae NCTC418, full MH at pH 7.4 ([2]; NCTC418, 4 h, pH 7.4): 8 ug/mL; MIC K. pneumoniae NCTC418, full MH at pH 8.5 ([2]; NCTC418, 4 h, pH 8.5): 12 ug/mL; MIC K. pneumoniae NCTC418 Full MH 8.5 ([2]; NCTC418, 4 h, pH 8.5): 8 to 16 µg/mL; MIC S. aureus COL (MRSA), full MH at pH 7.4 ([3]; COL, 4 h, pH 7.4): 8 ug/mL; Outer membrane permeabilization (NPN) [5]: permeabilized the outer membrane
CC(C)C[C@H](NC(=O)[C@H](CC(C)C)NC(=O)[C@H](CC(C)C)NC(=O)[C@@H](CCCCN)NC(=O)[C@H](CC(C)C)NC(=O)[C@H](CC(C)C)NC(=O)[C@@H](CCCCN)NC(=O)[C@H](CC(C)C)NC(=O)[C@H](CC(C)C)NC(=O)[C@@H](CCCCN)NC(=O)[C@H](N)CCCCN)C(N)=O [ln69, kkLLkLLkLLL, reference compound] (H-[dK][dK]LL[dK]LL[dK]LLL-NH2)	2 (≈ 1.51 µM)	2 (≈ 1.51 µM)	2 to 4	8 to 16	4 (≈ 3.03 µM)	2 (≈ 1.51 µM)	8 (≈ 6.05 µM)	2 (≈ 1.51 µM)	2 (≈ 1.51 µM)	16 (≈ 12.1 µM)	16 (≈ 12.1 µM)	2	6	4 to 8	2 (≈ 1.51 µM)	2	2	3	12	2 (≈ 1.51 µM)	MIC A. baumannii ATCC19606 Full [1]: 2 to 4 µg/mL; MIC K. pneumoniae NCTC418, […] MH at pH 7.4 ([2]; CSV): 4 ug/mL; MIC K. pneumoniae NCTC418, […] MH at pH 8.5 ([2]; CSV): 2 ug/mL; MIC K. pneumoniae NCTC418, full MH at pH 7.4 ([2]; CSV, full MH at pH 7.4): 8 ug/mL; MIC K. pneumoniae NCTC418, full MH at pH 8.5 ([2]; CSV, full MH at pH 8.5): 16 ug/mL; MIC K. pneumoniae NCTC418 Full MH 8.5 ([2]; Table S2, full MH, pH 8.5): 16 µg/mL (≈ 12.1 µM); MIC K. pneumoniae NCTC418 […] [2]: 4 µg/mL (≈ 3.03 µM); MIC K. pneumoniae NCTC418 Full ([2]; full MH): 8 µg/mL (≈ 6.05 µM); MIC S. aureus COL (MRSA), […] MH at pH 7.4 ([3]; CSV): 2 ug/mL; MIC S. aureus COL (MRSA), […] MH at pH 8.5 ([3]; CSV): 2 ug/mL; MIC S. aureus COL (MRSA), full MH at pH 7.4 ([3]; CSV, full MH at pH 7.4): 16 ug/mL; MIC S. aureus COL (MRSA), full MH at pH 8.5 ([3]; CSV): 16 ug/mL; MIC S. aureus COL (MRSA) […] [3]: 2 µg/mL (≈ 1.51 µM); MIC S. aureus COL (MRSA) Full [3]: 16 µg/mL (≈ 12.1 µM)
H-KKLLKLLKLLL-NH2 [ln65, reference compound]	4	2	2 to 4	8	2 to 4	2	4	2	2	4	8	4	4	–	4	4	2	3	8	4	MIC A. baumannii ATCC19606 Full [1]: 2 to 4 µg/mL; MIC K. pneumoniae NCTC418, […] MH at pH 7.4 ([2]; CSV): 3 ug/mL; MIC K. pneumoniae NCTC418, […] MH at pH 8.5 ([2]; CSV): 2 ug/mL; MIC K. pneumoniae NCTC418, full MH at pH 7.4 ([2]; CSV, full MH at pH 7.4): 4 ug/mL; MIC K. pneumoniae NCTC418, full MH at pH 8.5 ([2]; CSV, full MH at pH 8.5): 8 ug/mL; MIC K. pneumoniae NCTC418 Full MH 8.5 ([2]; Table S2, full MH, pH 8.5): 8 µg/mL; MIC K. pneumoniae NCTC418 […] [2]: 2 to 4 µg/mL; MIC K. pneumoniae NCTC418 Full ([2]; full MH): 4 µg/mL; MIC S. aureus COL (MRSA), […] MH at pH 7.4 ([3]; CSV): 2 ug/mL; MIC S. aureus COL (MRSA), […] MH at pH 8.5 ([3]; CSV): 2 ug/mL; MIC S. aureus COL (MRSA), full MH at pH 7.4 ([3]; CSV, full MH at pH 7.4): 4 ug/mL; MIC S. aureus COL (MRSA), full MH at pH 8.5 ([3]; CSV): 8 ug/mL; MIC S. aureus COL (MRSA) […] [3]: 2 µg/mL; MIC S. aureus COL (MRSA) Full [3]: 4 µg/mL
